Experimental data from patent US12331041B2, “GLP-1 receptor agonists and uses thereof” (Pfizer Inc., priority 2018, dated 2025).
Counter-ions that a name gives are not always drawn.

Key:
[1] = target: T1, human GLP-1R (Homo sapiens, UniProt P43220, G168S); assay: CHO GLP-1R Clone H6 - Assay 1 (HTRF cAMP agonist assay); format: cell-based; settings: for EC50: CHO Clone H6, high GLP-1R density, cAMP, geometric mean; for Emax: CHO Clone H6, relative to saturating full agonist GLP-1 7-36 (1 μM), arithmetic mean
T1 construct: expressed in transfected cells
In short: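 CHO Clone H6 cells stably expressing human GLP-1R (G168S) were plated 48 h, then given compound for 30 min at 37° C in HBSS/0.1% BSA/HEPES with 100 μM IBMX and 1% DMSO. cAMP was measured by HTRF against a standard curve.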

[2] = target: T2, human GLP-1R (Homo sapiens, UniProt P43220, L260F); assay: CHO GLP-1R Clone C6 - Assay 2 (HTRF cAMP agonist assay); format: cell-based; settings: for EC50: CHO clone C6, low GLP-1R density, cAMP, geometric mean; for Emax: CHO clone C6, relative to saturating full agonist GLP-1 (1 μM), arithmetic mean
T2 construct: expressed in transfected cells; host or cells: CHO Flp-In T-REx, clonal line C6 (pcDNA5-FRT-TO)
T2 sequence (P43220 24-463 L260F): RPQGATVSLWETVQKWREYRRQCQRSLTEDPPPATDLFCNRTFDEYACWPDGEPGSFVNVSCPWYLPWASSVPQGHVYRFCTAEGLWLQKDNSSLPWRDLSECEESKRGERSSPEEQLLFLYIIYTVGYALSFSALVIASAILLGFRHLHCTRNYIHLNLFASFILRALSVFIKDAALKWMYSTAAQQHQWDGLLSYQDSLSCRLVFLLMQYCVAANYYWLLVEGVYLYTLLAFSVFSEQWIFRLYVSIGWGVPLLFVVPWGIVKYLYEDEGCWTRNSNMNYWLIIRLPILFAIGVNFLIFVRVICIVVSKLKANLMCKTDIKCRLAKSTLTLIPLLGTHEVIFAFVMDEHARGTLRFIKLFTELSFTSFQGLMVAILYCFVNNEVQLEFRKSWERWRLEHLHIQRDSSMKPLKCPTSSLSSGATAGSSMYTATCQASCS

T1 sequence (P43220 24-463 G168S): as the sequence (P43220 24-463 L260F) above, with G145S, F237L counted along it

| Structure (SMILES) | EC50 [1] [nM] | Emax [1] [%] | EC50 [2] [nM] | Emax [2] [%] |
| --- | --- | --- | --- | --- |
| Cn1c(C2CC23CCN(c2nc(OCc4ccc(C#N)cc4F)c(F)cc2F)CC3)nc2ccc(C(=O)O)cc21 (stereo not shown) [Example 59, 2-(6-{6-[(4-cyano-2-fluorobenzyl)oxy]-3,5-difluoropyridin-2-yl}-6-azaspiro[2.5]oct-1-yl)-1-methyl-1H-benzimidazole-6-carboxylic acid, trifluoroacetate salt] | 6.8 | 80 | 120 | 85 |
| Cn1cnnc1Cn1c(C2CC23CCN(c2nc(OCc4ccc(Cl)cc4F)c(F)cc2F)CC3)nc2ccc(C(=O)O)cc21 (stereo not shown) [Example 60, 2-(6-{6-[(4-chloro-2-fluorobenzyl)oxy]-3,5-difluoropyridin-2-yl}-6-azaspiro[2.5]oct-1-yl)-1-[(4-methyl-4H-1,2,4-triazol-3-yl)methyl]-1H-benzimidazole-6-carboxylic acid, trifluoroacetate salt] | 5 | 91 | 110 | 110 |
| CCn1nncc1Cn1c(CN2CCC(c3ccnc(OCc4ccc(Cl)cc4F)n3)CC2)nc2ccc(C(=O)O)cc21 [Example 64, 2-[(4-{2-[(4-chloro-2-fluorobenzyl)oxy]pyrimidin-4-yl}piperidin-1-yl)methyl]-1-[(1-ethyl-1H-1,2,3-triazol-5-yl)methyl]-1H-benzimidazole-6-carboxylic acid] | 24 | 96 | 100 | 100 |
| COCCn1c(CN2CCC(c3ccnc(OCc4ccc(Cl)cc4F)n3)CC2)nc2ccc(C(=O)O)cc21 [Example 65, 2-[(4-{2-[(4-chloro-2-fluorobenzyl)oxy]pyrimidin-4-yl}piperidin-1-yl)methyl]-1-(2-methoxyethyl)-1H-benzimidazole-6-carboxylic acid, hydrochloride salt] | 88 | 85 | 1700 | 110 |
| O=C(O)c1ccc2nc(CN3CCC(c4ccnc(OCc5ccc(Cl)cc5F)n4)CC3)n(Cc3ncco3)c2c1 [Example 68, 2-[(4-{2-[(4-chloro-2-fluorobenzyl)oxy]pyrimidin-4-yl}piperidin-1-yl)methyl]-1-(1,3-oxazol-2-ylmethyl)-1H-benzimidazole-6-carboxylic acid, trifluoroacetate salt] | 8.3 | 77 | 310 | 92 |
| O=C(O)c1ccc2nc(CN3CCN(c4nc(OCc5ccc(Cl)cc5F)ncc4F)CC3)n(C[C@@H]3CCO3)c2c1 [Example 72, 2-[(4-{2-[(4-chloro-2-fluorobenzyl)oxy]-5-fluoropyrimidin-4-yl}piperazin-1-yl)methyl]-1-[(2S)-oxetan-2-ylmethyl]-1H-benzimidazole-6-carboxylic acid] | 6 | 96 | 120 | 130 |
| COCCn1c(CN2CCN(c3ccnc(OCc4ccc(Cl)cc4F)n3)[C@H](C)C2)nc2ccc(C(=O)O)cc21 [Example 74, 2-{[(3R)-4-{2-[(4-chloro-2-fluorobenzyl)oxy]pyrimidin-4-yl}-3-methylpiperazin-1-yl]methyl}-1-(2-methoxyethyl)-1H-benzimidazole-6-carboxylic acid, trifluoroacetate salt] | 500 | 86 | 11000 | 96 |
| C[C@@H]1CN(c2ccnc(OCc3ccc(Cl)cc3F)n2)CCN1Cc1nc2ccc(C(=O)O)cc2n1C[C@@H]1CCO1 [Example 75, ammonium 2-{[(2R)-4-{2-[(4-chloro-2-fluorobenzyl)oxy]pyrimidin-4-yl}-2-methylpiperazin-1-yl]methyl}-1-[(2S)-oxetan-2-ylmethyl]-1H-benzimidazole-6-carboxylate] | 21 | 88 | 370 | 100 |
| C[C@@H]1CN(Cc2nc3ccc(C(=O)O)cc3n2C[C@@H]2CCO2)[C@@H](C)CN1c1ccnc(OCc2ccc(Cl)cc2F)n1 [Example 76, ammonium 2-{[(2S,5R)-4-{2-[(4-chloro-2-fluorobenzyl)oxy]pyrimidin-4-yl}-2,5-dimethylpiperazin-1-yl]methyl}-1-[(2S)-oxetan-2-ylmethyl]-1H-benzimidazole-6-carboxylate] | 12 | 88 | 180 | 100 |
| C[C@H]1CN(c2ccnc(OCc3ccc(Cl)cc3F)n2)CCN1Cc1nc2ccc(C(=O)O)nc2n1C[C@@H]1CCO1 [Example 77, 2-{[(2S)-4-{2-[(4-chloro-2-fluorobenzyl)oxy]pyrimidin-4-yl}-2-methylpiperazin-1-yl]methyl}-3-[(2S)-oxetan-2-ylmethyl]-3H-imidazo[4,5-b]pyridine-5-carboxylic acid] | 4.4 | 100 | 110 | 110 |
| C[C@H]1CN(c2ccnc(OCc3ccc(Cl)cc3F)n2)CCN1Cc1nc2ccc(C(=O)O)cc2n1Cc1ncco1 [Example 78, 2-{[(2S)-4-{2-[(4-chloro-2-fluorobenzyl)oxy]pyrimidin-4-yl}-2-methylpiperazin-1-yl]methyl}-1-(1,3-oxazol-2-ylmethyl)-1H-benzimidazole-6-carboxylic acid, trifluoroacetate salt] | 17 | 79 | 440 | 81 |

More lines, in order of falling EC50 [1], values ahead:

| EC50 [1] [nM] | Emax [1] [%] | EC50 [2] [nM] | Emax [2] [%] | Structure (SMILES) |
| --- | --- | --- | --- | --- |
| 13 | 75 | 250 | 70 | O=C(O)c1ccc2nc(C3CC34CCN(c3nc(OCc5ccc(Cl)cc5F)ncc3F)CC4)n(Cc3cocn3)c2c1 (stereo not shown) [Example 43, 2-(6-{2-[(4-chloro-2-fluorobenzyl)oxy]-5-fluoropyrimidin-4-yl}-6-azaspiro[2.5]oct-1-yl)-1-(1,3-oxazol-4-ylmethyl)-1H-benzimidazole-6-carboxylic acid, trifluoroacetate salt, from P7] |
| 12 | 72 | 230 | 83 | O=C(O)c1ccc2nc(C3CC34CCN(c3nc(OCc5ccc(Cl)cc5F)ncc3F)CC4)n(Cc3cnco3)c2c1 (stereo not shown) [Example 45, 2-(6-{2-[(4-chloro-2-fluorobenzyl)oxy]-5-fluoropyrimidin-4-yl}-6-azaspiro[2.5]oct-1-yl)-1-(1,3-oxazol-5-ylmethyl)-1H-benzimidazole-6-carboxylic acid, trifluoroacetate salt, from P7] |
| 8.9 | 82 | 160 | 90 | C[C@H]1CN(c2nc(OCc3ccc(Cl)cc3F)ncc2F)CCN1Cc1nc2ccc(C(=O)O)cc2n1C[C@@H]1CCCO1 [Example 71, 2-{[(2S)-4-{2-[(4-chloro-2-fluorobenzyl)oxy]-5-fluoropyrimidin-4-yl}-2-methylpiperazin-1-yl]methyl}-1-[(2S)-tetrahydrofuran-2-ylmethyl]-1H-benzimidazole-6-carboxylic acid] |
| 4.4 | 86 | 110 | 98 | O=C(O)c1ccc2nc(CN3CCC(c4ccnc(OCc5ccc(Cl)cc5F)n4)CC3)n(C[C@@H]3CCO3)c2c1 [Example 62, 2-[(4-{2-[(4-Chloro-2-fluorobenzyl)oxy]pyrimidin-4-yl}piperidin-1-yl)methyl]-1-[(2S)-oxetan-2-ylmethyl]-1H-benzimidazole-6-carboxylic acid] |
| 3.3 | 90 | 52 | 120 | O=C(O)c1ccc2nc(CN3CCC(c4ccnc(OCc5ccc(Cl)cc5F)n4)CC3)n(C[C@@H]3CCO3)c2n1 [Example 67, ammonium 2-[(4-{2-[(4-chloro-2-fluorobenzyl)oxy]pyrimidin-4-yl}piperidin-l-yl)methyl]-3-[(2S)-oxetan-2-ylmethyl]-3H-imidazo[4,5-b]pyridine-5-carboxylate] |
| 2.4 | 84 | 89 | 100 | C[C@H]1CN(c2ccnc(OCc3ccc(Cl)cc3F)n2)CCN1Cc1nc2ccc(C(=O)O)cc2n1C[C@@H]1CCO1 [Example 73, 2-{[(2S)-4-{2-[(4-chloro-2-fluorobenzyl)oxy]pyrimidin-4-yl}-2-methylpiperazin-1-yl]methyl}-1-[(2S)-oxetan-2-ylmethyl]-1H-benzimidazole-6-carboxylic acid] |
| 1.1 | 68 | 26 | 74 | N#Cc1ccc(COc2nc(N3CCC4(CC3)CC4c3nc4ccc(C(=O)O)cc4n3Cc3ncco3)c(F)cc2F)c(F)c1 (stereo not shown) [Example 61, 2-(6-{6-[(4-cyano-2-fluorobenzyl)oxy]-3,5-difluoropyridin-2-yl}-6-azaspiro[2.5]oct-1-yl)-1-(1,3-oxazol-2-ylmethyl)-1H-benzimidazole-6-carboxylic acid, trifluoroacetate salt] |
| 0.91 | 89 | 18 | 110 | C[C@H]1CN(c2nc(OCc3ccc(Cl)cc3F)ncc2F)CCN1Cc1nc2ccc(C(=O)O)cc2n1C[C@@H]1CCO1 [Example 69, Ammonium 2-{[(2S)-4-{2-[(4-chloro-2-fluorobenzyl)oxy]-5-fluoropyrimidin-4-yl}-2-methylpiperazin-1-yl]methyl}-1-[(2S)-oxetan-2-ylmethyl]-1H-benzimidazole-6-carboxylate] |
